Test results: patent US4983632A, “Use of gamma-hydroxybutyric acid salts for preparing pharmaceutical compositions for use in the treatment of alcoholism, and the compositions obtained” (Laboratorio Farmaceutico C.T. S.r.l., priority 1988, dated 1991)
Counter-ions that a name gives are not always drawn.

Key:
[1] = tested on: craving for ethyl alcohol in alcoholics; assay: Clinical study, craving for ethyl alcohol in alcoholics (overall); type: in vivo, man; details: overall clinical conclusion
Excerpt: To the end of demostrating the efficacy of the pharmaceutical compositions according to the invention we have furthermore carried out some […] tests to evaluate the efficacy of GHB salts in obtaining and mantaining abstention from alcoholic drinks in man; we synthetically report herein below the methods followed and the results obtained in one of such studies.
(§1) Finally, to the end of proving that the craving for drinks containing ethyl alcohol ("craving" for short) can be modified by pharmacological treatment with the compositions according to the present invention, we have selected 40 alcohol-dependent individuals according to the Diagnostic and Statistic Manual, 3rd edition Revised (DMS-III R) classification.
(§2) […] a NaGHB treatment at the doses of 0.05 g/kg/day in two administrations was given for an average period of 4-6 weeks.
(§3) In order to obtain a further experimental confirmation of the results obtained in the open test, we have carried out a test in double-blind.
(§4) 80 individuals, alcohol dependent according to DSM III-R, were divided in two groups by simple randomization and treated with NaGHB or with a placebo at the doses of 0.05 g/kg/day divided in two administrations for a total of 60 days.

[2] = Acute toxicity for oral administration in the mouse; type: in vivo; details: in vivo; for mortality: read-out: Mortality (M+F)
mouse [3] = assay: as above; type: in vivo
[4] = tested on: aldehyde dehydrogenase (ALDH); assay: ALDH activity in supernatant of rat liver homogenate; type: biochemical; details: for ALDH activity: pyrazole 0.03M, propionaldehyde substrate, mean±M.S.E. of three experiments
Method: (§5) The ADH and ALDH activity were measured using the surnatant of rat liver homogenate. The ADH activity was measured by oxidising the ethanol to acetaldehyde in the presence of NAD in tubes containing NaGHB.
(§6) The formation of reduced nicotine-adenine dinucleotide (NADH) was determined by spectrometry measurement at 340 nm and the ALDH activity was determined in the same manner. In addition, pyrazole (0.03M) was added to the reaction mixture to inhibit ADH and propionaldehyde was added as substrate. Each value is the mean±M.S.E. of three experiments.

alcohol-preferring rats [5] = assay: Voluntary consumption of ethanol in alcohol-preferring rats, NaGHB (Table 2); type: in vivo, male Wistar rats; details: for Ethanol consumption, treatment: three consecutive days
Method: The trial was carried out on male Wistar rats of initial weight 130-160 g. The alcohol-preferring rats were chosen from a heterogeneous rat population having an average age of 40 days. The animals were caged individually and kept in an environment at a temperature of 24° C., with light from 8.00 to 20.00 hous. The method used to select alcohol-preferring rats was to allow the animals to choose from two bottles, one containing water and the other containing an increasingly strong ethanol solution. The tapwater and the ethanol solution were administered from graduated bottles (Richter), their positon being changed irregularly to prevent the habit of drinking from the same bottle. Starting from a 3% ethanol solution, the concentration was increased by 1% every day to a maximum of 10%. This ethanol concentration was used for the whole trial period. The experiments were carried out only on rats by whom more than 60% of the liquid drunk had been 10% ethanol. The thus chosen rats imbibed a constant mean ethanol quantity of 3.2±0.4 g/rat/day. The weight of the animals during this period was 380±35 g, and therefore the consumption of absolute alcohol per rat per kg of body weight was 8±0.54 g.
Different randomly chosen groups of these animals were respectively treated with increasing doses of the sodium salt of gamma-hydroxy butyric acid (NaGHB) wheas the control group received the same volume of physiological solution (10 ml/kg). The quantity of ethanol and water imbibed was recorded before, during and after treatment at the same time each day, and the treatment was repeated for three consecutive days.
The results of this trial are given in Table 2 which compares ethanol consumption in g/kg before, during and after treatment with NaGHB at three different doses of 150, 300 and 450 mg/kg.

[6] = Acute toxicity for intraperitoneal administration in the mouse; type: in vivo; details: in vivo, ip; for mortality: read-out: Mortality (M + F)
mouse [7] = assay: as above; type: in vivo
[8] = biological target: T1, alcohol dehydrogenase (ADH) (Rattus norvegicus, UniProt P06757); assay: ADH activity in supernatant of rat liver homogenate; type: biochemical; details: for ADH activity: mean±M.S.E. of three experiments
T1 construct: measured using the surnatant of rat liver homogenate; from tissue; host or cells: rat liver homogenate supernatant
Method: as §5, §6

[9] = tested on: craving for drinks containing ethyl alcohol; assay: Craving in alcohol-dependent individuals, open test; type: in vivo, man
Excerpt: (§7) To this end we have prepared a questionnaire entitled "Restrained Drinking and Alcohol Craving Scale" (RDAGS) and we have examined whether said questionnaire was capable of differentiating between alcoholics and non-alcoholics.
as §1, §2
For comparison, a group of 40 alcoholics was examined, using the same criteria as for the NaGHB treatment groups; to this group a psychological and/or socio-rehabilitation technique was applied, with no specific pharmacological support (polyvitamins only).

rat = assay: Chronic toxicity tests on the rat; type: in vivo
[10] = tested on: craving for drinks containing ethyl alcohol; assay: Craving in alcohol-dependent individuals, double-blind test; type: in vivo, man
Excerpt: as §7, §3, §4

alcohol-preferring rats [11] = assay: Inhibition of voluntary ethanol consumption by alcohol-preferring rats, PTT-01 (Table 1); type: in vivo, rat; details: mean of 10 animals
Excerpt: Each value represents the mean of 10 aminals.

[12] = cited from earlier work
patients = details: cited from earlier work
[13] = tested on: aldehyde-dehydrogenase enzyme; details: assumed competition with NAD on active sites; cited from earlier work
[14] = 0.05 g/kg/day in two administrations, 60 days, vs placebo

T1 sequence (P06757 whole entry): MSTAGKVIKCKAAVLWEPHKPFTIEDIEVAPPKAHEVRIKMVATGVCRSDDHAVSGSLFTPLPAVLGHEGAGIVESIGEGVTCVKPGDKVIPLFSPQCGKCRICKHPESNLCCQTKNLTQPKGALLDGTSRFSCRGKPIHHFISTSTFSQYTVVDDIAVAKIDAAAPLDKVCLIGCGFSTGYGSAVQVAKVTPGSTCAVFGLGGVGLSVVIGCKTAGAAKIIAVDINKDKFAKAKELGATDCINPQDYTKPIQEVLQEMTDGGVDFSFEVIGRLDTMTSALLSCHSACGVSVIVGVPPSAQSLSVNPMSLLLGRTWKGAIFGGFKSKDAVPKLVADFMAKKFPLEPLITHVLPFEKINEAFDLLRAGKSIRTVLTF

## O=C(O)CCCO [GHB, gamma-hydroxybutyric acid]
[1]
  suppression of craving for ethyl alcohol in alcoholics: surprising activity of GHB in suppressing the craving for ethyl alcohol in alcoholics

## O=C(O)CCCO [NaGHB, sodium salt of gamma-hydroxybutyric acid]
[2]; 10000 mg/kg, 10 g/kg
  mortality: 0%
[2]; 11000 mg/kg, 11 g/kg
  mortality: 33.3%
[2]; 13000 mg/kg, 13 g/kg
  mortality: 66.6%
[2]; 15000 mg/kg, 15 g/kg
  mortality: 100%
[2]; Table 4, 95% CL 10.95-13.17
  LD50: 12000 mg/kg
Mouse [3]
  LD50: 12014 mg/kg
[4]
  acetaldehyde metabolism: without in any way altering acetaldehyde metabolism
[4]; 10^-3 molar
  ALDH activity: 0.0132 ± 0.0009 D.O/min/mg prot
[4]; 10^-4 molar
  ALDH activity: 0.0138 ± 0.0011 D.O/min/mg prot
[4]; 10^-5 molar
  ALDH activity: 0.0135 ± 0.0010 D.O/min/mg prot
[4]; up to 10^-3 M
  inhibition of aldehyde dehydrogenase (ALDH): does not inhibit
alcohol-preferring rats [5]; NaGHB 150 mg/kg
  Ethanol consumption, post-treatment: 7.02 ± 0.44 g/kg
  Ethanol consumption, treatment: 6.11 ± 0.21 g/kg
alcohol-preferring rats [5]; NaGHB 150 mg/kg group
  Ethanol consumption, pretreatment: 7.71 ± 0.51 g/kg
alcohol-preferring rats [5]; NaGHB 300 mg/kg
  Ethanol consumption, post-treatment: 5.88 ± 0.35 g/kg
  Ethanol consumption, treatment: 3.43 ± 0.23 g/kg
alcohol-preferring rats [5]; NaGHB 300 mg/kg group
  Ethanol consumption, pretreatment: 7.48 ± 0.35 g/kg
alcohol-preferring rats [5]; NaGHB 450 mg/kg
  Ethanol consumption, post-treatment: 5.10 ± 0.48 g/kg
  Ethanol consumption, treatment: 2.12 ± 0.11 g/kg
alcohol-preferring rats [5]; NaGHB 450 mg/kg group
  Ethanol consumption, pretreatment: 7.82 ± 0.46 g/kg
alcohol-preferring rats [5]; daily administration, 450 mg/kg
  consumption of ethyl alcohol relative to consumption before treatment: below 50%
alcohol-preferring rats [5]; during treatment
  total imbibed fluid: no significant reduction in total imbibed fluid
alcohol-preferring rats [5]; five days after interruption
  Alcohol consumption and preference for alcohol after interrupting administration: returned to their pre-treatment levels five days after interrupting the administration of the medicament
[6]; 2500 mg/kg, 2.5 g/kg
  mortality: 0%
[6]; 3000 mg/kg, 3 g/kg
  mortality: 33.3%
[6]; 3500 mg/kg, 3.5 g/kg
  mortality: 66.7%
[6]; 4000 mg/kg, 4 g/kg
  mortality: 100%
[6]; Table 5, 95% CL 2.92-3.521
  LD50: 3210 mg/kg
Mouse [7]
  LD50: 3210 mg/kg
[8]; 10^-3 molar
  ADH activity: 0.0239 ± 0.0015 D.O/min/mg prot
[8]; 10^-4 molar
  ADH activity: 0.0240 ± 0.0018 D.O/min/mg prot
[8]; 10^-5 molar
  ADH activity: 0.0245 ± 0.0018 D.O/min/mg prot
[8]; up to 10^-3 M
  inhibition of alcohol dehydrogenase (ADH): does not inhibit
[9]; 0.05 g/kg/day in two administrations, 4-6 weeks
  craving reduction: statistically highly significant craving reduction
[9]; 40 alcohol-dependents in open test (Table 6)
  Craving decrease induced by NaGHB: Efficient
rat
  toxic action at organ level: No toxic action at organ level was observed
[10]; [14]
  drop-out percentage: lower, statistically significant, drop-out percentage
  improvement of the craving: notable improvement of the craving
[10]; 40 alcohol dependents in double blind test (Table 6)
  Craving decrease induced by NaGHB: Efficient

## CCCCC(=O)NC1CCOC1=O (stereo not drawn) [PTT-01, α-n-butyl carbonylamino-gamma-butyro lactone]
alcohol-preferring rats [11]; PTT-01 100 mg/kg group
  Ethanol consumption, pretreatment: 7.21 ± 0.40 g/kg
alcohol-preferring rats [11]; PTT-01 100 mg/kg
  Ethanol consumption, post-treatment: 7.24 ± 0.44 g/kg
  Ethanol consumption, treatment: 7.03 ± 0.38 g/kg
alcohol-preferring rats [11]; PTT-01 200 mg/kg group
  Ethanol consumption, pretreatment: 7.70 ± 0.28 g/kg
alcohol-preferring rats [11]; PTT-01 200 mg/kg
  Ethanol consumption, post-treatment: 7.36 ± 0.51 g/kg
  Ethanol consumption, treatment: 7.51 ± 0.41 g/kg
alcohol-preferring rats [11]; PTT-01 300 mg/kg group
  Ethanol consumption, pretreatment: 7.08 ± 0.19 g/kg
alcohol-preferring rats [11]; PTT-01 300 mg/kg
  Ethanol consumption, post-treatment: 6.98 ± 0.15 g/kg
  Ethanol consumption, treatment: 7.00 ± 0.46 g/kg

## CCN(CC)C(=S)SSC(=S)N(CC)CC [disulfiram]
[12]; alcohol after disulfiram pretreatment vs same dose of alcohol only
  acetaldehyde level in the blood, times greater than with alcohol alone: 5-10 times
[12]; in the presence of disulfiram
  acetaldehyde concentration: acetaldehyde concentration increases
patients; alone, therapeutic doses
  toxicity when administered alone: not toxic, although not completely innocuous
patients; disulfiram itself
  side effects: can cause acneform eruptions, allergic dermatitis, urticaria, tiredness, fatique, tremors, reduced sexual power, gastric disturbances and digestive disturbances
patients; following treatment, discussed with ingestion of alcohol
  adverse reactions following disulfiram treatment: cases of respiratory depression, cardiovascular collapse, cardiac arrhythmia, myocardium infarct, and sudden or unexpected death have occurred
patients; patients treated
  refusal of alcoholic drinks: refuse alcoholic drinks
[13]
  acetaldehyde oxidation rate: reducing the acetaldehyde oxidation rate
